Test results: patent US20240382491A1, “METHODS FOR TREATING NEUROGENERATIVE DISEASES” (PTC THERAPEUTICS, INC., priority 2021, published 2024)

Key:
IKBKAP gene = details: as reported in International Publication No. WO2016/115434; cited from earlier work
[1] = test system: MAPT 3R mRNA (Microtubule associated protein Tau); assay: RT-qPCR Assay to Quantify MAPT 3R mRNA in Cells; format: cell-based; details: MAPT 3R mRNA by RT-qPCR, GAPDH assay in same reaction; cells treated 24 h; 7-point concentration curve

SMILES | potency in correcting mRNA splicing and promoting exon 20 inclusion in the IKBKAP gene (IKBKAP gene) | EC (2-fold increase) [1]
Clc1nc(NCc2ccncc2)c2cc[nH]c2n1 [Comparison Compound 1, 2-chloro-N-(pyridin-4-ylmethyl)-7H-pyrrolo[2,3-d]pyrimidin-4-amine] | very potent | 
C[C@H](N)Cc1[nH]c2nc(Cl)nc(NCc3ccco3)c2c1F [Cpd 10, 6-[(2S)-2-aminopropyl]-2-chloro-5-fluoro-N-[(furan-2-yl)methyl]-7H-pyrrolo[2,3-d]pyrimidin-4-amine] |  | 0.05 to 0.5 µM
CNCCc1[nH]c2nc(Cl)nc(NCc3ccco3)c2c1Cl [Cpd 17, 2,5-dichloro-N-[(furan-2-yl)methyl]-6-[2-(methylamino)ethyl]-7H-pyrrolo[2,3-d]pyrimidin-4-amine] |  | 1 to 1.5 µM
C[C@H](N)Cc1c(Cl)c2c(NCc3ccco3)nc(Cl)nc2n1C [Cpd 23, 6-[(2S)-2-aminopropyl]-2,5-dichloro-N-[(furan-2-yl)methyl]-7-methyl-7H-pyrrolo[2,3-d]pyrimidin-4-amine] |  | 0.05 to 0.5 µM
C[C@H](N)Cc1c(F)c2c(NCc3ccco3)nc(Cl)nc2n1C [Cpd 24, 6-[(2S)-2-aminopropyl]-2-chloro-5-fluoro-N-[(furan-2-yl)methyl]-7-methyl-7H-pyrrolo[2,3-d]pyrimidin-4-amine] |  | 0.05 to 0.5 µM
Cc1c(C[C@H](C)N)n(C)c2nc(Cl)nc(NCc3ccco3)c12 [Cpd 35, 6-[(2S)-2-aminopropyl]-2-chloro-N-[(furan-2-yl)methyl]-5,7-dimethyl-7H-pyrrolo[2,3-d]pyrimidin-4-amine] |  | 0.05 to 0.5 µM
C[C@H](N)Cc1c(F)c2c(NCc3nccs3)nc(Cl)nc2n1C [Cpd 38, 6-[(2S)-2-aminopropyl]-2-chloro-5-fluoro-7-methyl-N-[(1,3-thiazol-2-yl)methyl]-7H-pyrrolo[2,3-d]pyrimidin-4-amine] |  | 0.5 to 1 µM
C[C@H](N)Cc1c(F)c2c(NCc3ccncc3F)nc(Cl)nc2n1C [Cpd 41, 6-[(2S)-2-aminopropyl]-2-chloro-5-fluoro-N-[(3-fluoropyridin-4-yl)methyl]-7-methyl-7H-pyrrolo[2,3-d]pyrimidin-4-amine] |  | 0.5 to 1 µM
C[C@H](N)Cc1c(F)c2c(NCc3ccncc3)nc(Cl)nc2n1C [Cpd 43, 6-[(2S)-2-aminopropyl]-2-chloro-5-fluoro-7-methyl-N-[(pyridin-4-yl)methyl]-7H-pyrrolo[2,3-d]pyrimidin-4-amine] |  | 0.5 to 1 µM
C[C@H](N)Cc1c(F)c2c(NCc3cccs3)nc(Cl)nc2n1C [Cpd 49, 6-[(2S)-2-aminopropyl]-2-chloro-5-fluoro-7-methyl-N-[(thiophen-2-yl)methyl]-7H-pyrrolo[2,3-d]pyrimidin-4-amine] |  | 0.05 to 0.5 µM
